Results reported in patent US6310093A (priority 1998, dated 2001).

Key:
[1] = tested on: glial cultures (astrocytes); test: Glutamate and cell death in glial cultures exposed to hypoxia with glutamine; assay type: cell-based, mouse (Swiss Webster); details: for Glu: hypoxia, 2 mM Gln
Experimental: Measurements of glutamate and glutamine concentrations, as well as of the release of the cytoplasmic marker enzyme, lactate dehydrogenase (LDH), were made with the medium of mixed neuronal-astrocyte cultures exposed to hypoxic and control conditions, with and without the addition of 2 mM glutamine. For comparative purposes, the measurements were made in mixed cultures in which complete neuronal death was caused by a 5h exposure to 500 μM NMDA. The first glutamate measurement was made at the end of hypoxia (5h with mixed cultures, 7h with astrocytes), and the second at 19 h after the subsequent return of oxygen. If added, glutamine was present during and after hypoxia. LDH released by the experimental treatment was measured at 24 h, and is expressed as a percentage of the total cellular content (neurons in mixed cultures, and glia in glial cultures). To verify the neuronal origin of LDH and glutamate, similar experiments were performed on cultures that only contained glia.
Astrocytes were cultured from cortical cell suspensions from 1-2 day old Swiss Webster mouse pups. Mixed cultures of neurons and astrocytes were obtained by plating cortical neurons from embryonic day 15-16 mice on confluent astrocyte monolayers. Pure neuronal cultures were made from the same embryonic cortical cell suspensions; astrocyte growth was inhibited by adding cytosine arabinoside and decreasing serum in the medium. For survival, neuronal cultures were fed with glial conditioned medium. Neuronal cultures were used for experiments at 11-15 days in vitro, and mixed cultures at 13-15 days after plating the neurons.
Hypoxia was carried out at 37° C. in an anoxic chamber (<0.2% oxygen; Forma Scientific). Before each experiment, the medium was pre-equilibrated with an anoxic gas mixture containing 5% CO2, 85% N2 and 10% H2 and incubated at 37° C. […] The oxygen tension in the anoxic chamber was monitored using an oxygen electrode (Model MI-730; Microelectrodes Inc.). […]

[2] = tested on: pure neuronal cultures (cortical neurons) exposed to glutamine; test: cells; details: Mus musculus, Cortical neurone, 24 h, read-out: neuronal LDH release
glutaminase = details: Kovacevic and McGiven, 1983; read-out: Km of glutaminase for glutamine; cited from earlier work

NC(=O)CC[C@H](N)C(=O)O [Gln, glutamine]
cytotoxicity at 2000 µM ([1]; Mus musculus, Astrocyte, 24 h, read-out: % cell death (LDH)): 2 to 5%
Glu ([1]; 7 h): 0.39 ± .09 µM
Glu ([1]; 24 h): 0.39 ± 0.07 µM
cytotoxicity at 2000 µM [2]: 62 ± 22%
Km (glutaminase): 2 to 8 mM
